Experimental findings from patent US10851083B2, “Benzoimidazoles as prolyl hydroxylase inhibitors” (Janssen Pharmaceutica NV, priority 2008, dated 2020) are described below.

Test [1] deals with human PHD2181-417 (Homo sapiens (Human), UniProt Q9GZT9). Description: PHD2 enzyme activity assay ([14C]-succinic acid production).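 Further: reaction ran 10 min with compound in Tris pH 7.5 buffer with catalase, DTT and ascorbate, labelled succinate freed of leftover 2-oxoglutarate by DNP precipitation, then beta counted.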 Conditions: PHD2181-417 polypeptide, HIF-1α peptide 10 μM, [5-14C]-2-oxoglutaric acid; 30 min pre-incubation; tested 10 μM to 3 nM. Type of test: biochemical.
The subject of test [2] is Hep-3B cells. Description: Cellular assay: EPO secretion in Hep-3B cells. The arrangement: EPO secretion, % of control compound: dose or concentration left out as unconfirmed. Conditions: Homo sapiens, Hep3B, 24 h, EPO secretion as percentage of control compound 7-[(4-Chloro-phenyl)-(5-methyl-isoxazol-3-ylamino)-methyl]-quinolin-8-ol, read-out: Cellular % EPO Stimulation. The format is cell-based, human.

Sequence of human PHD2181-417 (Q9GZT9 181-417): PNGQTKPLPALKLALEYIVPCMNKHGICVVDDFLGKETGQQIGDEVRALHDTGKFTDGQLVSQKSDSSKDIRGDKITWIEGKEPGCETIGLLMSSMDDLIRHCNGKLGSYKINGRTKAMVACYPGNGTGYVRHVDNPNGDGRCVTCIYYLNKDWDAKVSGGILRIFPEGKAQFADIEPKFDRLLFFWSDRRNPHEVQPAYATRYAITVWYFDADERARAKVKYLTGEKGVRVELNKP

In the case of `CCSc1cc2[nH]c(-n3cc(C(=O)O)cn3)nc2cc1Cl` [Example 76, 1-(5-Chloro-6-ethylsulfanyl-1H-benzoimidazol-2-yl)-1H-pyrazole-4-carboxylic Acid], the “Enzyme pIC50” value in test [1] is recorded as 6.9. In addition, the EPO secretion, % of control compound in test [2] stood at 212%.
Take `CC(C)Sc1cc2[nH]c(-n3cc(C(=O)O)cn3)nc2cc1Cl` [Example 77, 1-(5-Chloro-6-isopropylsulfanyl-1H-benzoimidazol-2-yl)-1H-pyrazole-4-carboxylic Acid]: the “Enzyme pIC50” value in test [1] is on record as 6.8. For the same compound, the EPO secretion, % of control compound in test [2] was found to be 153%.
The matching figures for `CCCSc1cc2[nH]c(-n3cc(C(=O)O)cn3)nc2cc1Cl` [Example 78, 1-(5-Chloro-6-propylsulfanyl-1H-benzoimidazol-2-yl)-1H-pyrazole-4-carboxylic Acid]: 7 and 125%.
Take `CSc1cc2[nH]c(-n3cc(C(=O)O)cn3)nc2cc1OC(F)(F)F` [Example 79, 1-(6-Methylsulfanyl-5-trifluoromethoxy-1H-benzoimidazol-2-yl)-1H-pyrazole-4-carboxylic Acid]: the “Enzyme pIC50” value in test [1] is 7.1. For the same compound, the EPO secretion, % of control compound in test [2] stood at 83.8%.
Regarding `Cc1cccc(S(=O)(=O)c2cc3nc(-n4cc(C(=O)O)cn4)[nH]c3cc2Cl)c1` [Example 82, 1-[6-Chloro-5-(toluene-3-sulfonyl)-1H-benzoimidazol-2-yl]-1H-pyrazole-4-carboxylic Acid], the “Enzyme pIC50” value in test [1] is reported as 7.4. The EPO secretion, % of control compound in test [2] stood at 85.3%.
For `O=C(O)c1cnn(-c2nc3cc(S(=O)(=O)c4ccccc4)c(Cl)cc3[nH]2)c1` [Example 83, 1-(5-Benzenesulfonyl-6-chloro-1H-benzoimidazol-2-yl)-1H-pyrazole-4-carboxylic Acid], in test [1], the “Enzyme pIC50” value worked out at 7.57. The EPO secretion, % of control compound in test [2] stood at 96.7%.
Take `COc1ccc(S(=O)(=O)c2cc3nc(-n4cc(C(=O)O)cn4)[nH]c3cc2Cl)cc1` [Example 84, 1-[6-Chloro-5-(4-methoxy-benzenesulfonyl)-1H-benzoimidazol-2-yl]-1H-pyrazole-4-carboxylic Acid]: the “Enzyme pIC50” value in test [1] was 7.3. In addition, the EPO secretion, % of control compound in test [2] stood at 42.7%.
Turning to `O=C(O)c1cnn(-c2nc3cc(S(=O)(=O)c4ccc(Cl)cc4)c(Cl)cc3[nH]2)c1` [Example 85, 1-[6-Chloro-5-(4-chloro-benzenesulfonyl)-1H-benzoimidazol-2-yl]-1H-pyrazole-4-carboxylic Acid], in test [1], the “Enzyme pIC50” value is reported as 7.3. Moreover, the EPO secretion, % of control compound in test [2] worked out at 51.6%.
The matching figures for `O=C(O)c1cnn(-c2nc3cc(S(=O)(=O)c4ccc(OC(F)(F)F)cc4)c(Cl)cc3[nH]2)c1` [Example 86, 1-[6-Chloro-5-(4-trifluoromethoxy-benzenesulfonyl)-1H-benzoimidazol-2-yl]-1H-pyrazole-4-carboxylic Acid]: 7.3 and 48.9%.
The matching figures for `O=C(O)c1cnn(-c2nc3cc(S(=O)(=O)c4ccc(Cl)c(Cl)c4)c(Cl)cc3[nH]2)c1` [Example 87, 1-[6-Chloro-5-(3,4-dichloro-benzenesulfonyl)-1H-benzoimidazol-2-yl]-1H-pyrazole-4-carboxylic Acid]: 6.68 and 32.4%.
The corresponding values for `COc1cccc(S(=O)(=O)c2cc3nc(-n4cc(C(=O)O)cn4)[nH]c3cc2Cl)c1` [Example 88, 1-[6-Chloro-5-(3-methoxy-benzenesulfonyl)-1H-benzoimidazol-2-yl]-1H-pyrazole-4-carboxylic Acid] are 7.4 and 69.4%.
As for `O=C(O)c1cnn(-c2nc3cc(S(=O)(=O)Cc4ccccc4)c(Cl)cc3[nH]2)c1` [Example 89, 1-(6-Chloro-5-phenylmethanesulfonyl-1H-benzoimidazol-2-yl)-1H-pyrazole-4-carboxylic Acid], the “Enzyme pIC50” value in test [1] came to 7.5. Also, in test [2], the EPO secretion, % of control compound was found to be 28.4%.
